Experimental findings from PMC10385824, “Antiproliferative and Tubulin-Destabilising Effects of 3-(Prop-1-en-2-yl)azetidin-2-Ones and Related Compounds in MCF-7 and MDA-MB-231 Breast Cancer Cells” (Pharmaceuticals, 2023) are described below.

In data set [1] the test system is MCF-7 cells. In words: Lactate dehydrogenase (LDH) cytotoxicity assay. The format is cell-based, human. Particulars: 10 μM, 72 h, LDH release. As for the experimental part:
The cytotoxic effects of the compounds were determined using the CytoTox 96 non-radioactive cytotoxicity assay (Promega) as previously reported. The MCF-7 cells were seeded in 96-well plates and incubated for 24 h. Cells were treated with test compounds 16, 26 and 30 at 10 μM concentration as described in the cell viability assay above. At 72 hr, 20 μL of ‘lysis solution (10X)’ was added to the control wells to ensure 100% death. The cells were incubated for a further 1 hr. Supernatant (50 μL) was removed from each well and transferred to a 96-well plate. Cytotox 96R Reagent (50 μL) was added to each well, and the plate was retained in darkness at 20 °C for 30 min. 50 μL of ‘stop solution’ was then added to each well, and the absorbance was determined at 490 nm using a Dynatech MR5000 plate reader. The cell death (%) at 10 μM was determined.

The subject of data set [2] is colchicine-binding site of β-tubulin (Cys239, Cys354) in MCF-7 cells. In words: Colchicine-binding site assay (EBI crosslinking, Western blot). Particulars: 10 μM, 2 h, then EBI. On the technique in general: A western blot detects proteins with antibodies after separation by electrophoresis.
Data set [3] is described as follows: HPLC stability study in plasma. The class given is in vitro ADME, human. The following applies: human, buffered plasma (plasma:buffer 1:9), Plasma. As to the method: Analytical high-performance liquid chromatography (HPLC) stability studies were performed as follows using Symmetry® column (C18, 5 µm, 4.6 × 150 mm), Waters 2487 Dual Wavelength Absorbance detector, Waters 1525 binary HPLC pump and Waters 717 plus Autosampler (Waters Corporation, Milford, MA, USA) with detection at 254 nm as previously described. Samples were analysed using mobile phase acetonitrile (80%): water (20%), flow rate (1 mL/min) over 10 min. […] First, 30 µL of compound stock solution was diluted with appropriate buffer (1 mL); sample was shaken and injected immediately. Samples were withdrawn and analysed at the following time points: t = 0 min, 5 min, 30 min, 60 min, 90 min, 120 min, 24 h and 48 h. (ii) Thermal stability: Compound stock solution (1 mL) was placed in a glass vial on a heating block for 4 h at 60 °C. The sample was then cooled, diluted (acetonitrile) and analysed. (ii) Oxidising conditions: H2O2 (3%, 0.2 mL) was added to compound stock solution (0.8 mL). The vial was vortexed and retained at 20 °C, and the sample was analysed at 60, 120 180 and 240 min. (iv) Acidic conditions: HCl (0.1 M, 0.2 mL) was added to stock solutions (0.8 mL). The vial was mixed by vortex and retained at 20 °C. A sample was neutralised with NaOH (0.1 M, 0.2 mL) at 60, 120, 180 and 240 min, followed by HPLC analysis. (v) Alkaline conditions: NaOH (0.1 M, 0.2 mL) was added to stock solution (0.8 mL) of the compound in a vial. The vial was mixed by vortex and retained at 20 °C. A sample was neutralised with HCl (0.1 M, 0.2 mL) at 60, 120, 180 and 240 min followed by HPLC analysis. (vi) Photostability study: Compounds (stock solution, 1 mL) were placed in a vial, exposed to UV light for 4 h and then analysed by HPLC as above. Stability studies in plasma: Approval for this study was obtained from the School of Pharmacy and Pharmaceutical Sciences Trinity College Dublin Research Ethics Committee (2020–06-01-MS). Following informed consent, blood was withdrawn from healthy volunteers, and plasma was obtained by centrifugation and kept at −20 °C until further use. […] A sample (250 µL) was then added to the Eppendorf tube containing ZnSO4.7H2O solution (500 µL) (2% w/v ZnSO4 solution in acetonitrile:water, 1:1). The samples were centrifuged (10,000 rpm, 3 min), filtered (0.2 micron filter) and analysed by HPLC as above. Further samples were taken at one-hour intervals.

Data set [4] relates to MCF-7 cells. In words: Annexin-V/PI apoptosis assay.
Protocol: Flow cytometry using annexin-V and propidium iodide (PI) was used to detect apoptotic cell death in MCF-7 cells. […] Cells were then incubated on ice in darkness for 30 min in annexin-V-containing binding buffer [1:100]. Cells were washed once in binding buffer and then re-suspended in propidium iodide containing binding buffer [1:1000]. Cells were analysed directly using the BD Accuri flow cytometer and Prism software. Four cell populations are produced in this assay: annexin-V- and PI-negative (Q4, healthy cells), annexin-V-positive and PI-negative (Q3, early apoptosis), annexin-V- and PI-positive (Q2, late apoptosis) and annexin-V-negative and PI-positive (Q1, necrosis). CA-4 (50 nM) was used as the positive control for apoptosis.
Cells were then collected and processed for analysis.
The test system of data set [5] is microtubule network in MCF-7 cells. The data set is described as follows: Immunofluorescence confocal microscopy. The format is cell-based, human. The following applies: 16 h. As for the experimental part: CA-4 and β-lactam 9q depolymerise the microtubule network in MCF-7 cells. […] After 16 h, the cells were fixed in 4% paraformaldehyde and stained with mouse monoclonal anti-α-tubulin−FITC antibody (clone DM1A) (green), Alexa Fluor 488 dye, and counterstained with DAPI (blue). The confocal images were obtained by Leica SP8 confocal microscopy with Leica application suite X software. Representative confocal micrograph images of three separate experiments are shown above [scale bar: […]].
The effects of β-lactam 9q on MCF-7 cytoskeleton were determined using confocal microscopy as previously described. MCF-7 cells were seeded at 1 × 10^5 cells/mL in glass slides with eight chambers (BD Biosciences, San Jose, CA, USA). […] Following treatment, cells were gently washed in PBS, fixed for 20 min with 4% paraformaldehyde in PBS and permeabilised in 0.5% Triton X-100. The cells were then washed with PBS-T (PBS containing 0.1% Tween), blocked in 5% bovine serum albumin diluted in PBS-T and incubated with mouse monoclonal anti-α-tubulin-FITC antibody (clone DM1A) (Sigma, Milwaulkee, WI, USA) (1:100) for 2 h at 20 °C. The cells were washed again with PBS-T and incubated with Alexa Fluor 488 dye (1:450) for 1 h at 20 °C. Following washes in PBST, the cells were mounted in Ultra Cruz Mounting Media (Santa Cruz Biotechnology, Santa Cruz, CA, USA), which contained 4,6-diamino-2-phenolindol dihydrochloride (DAPI). The immunofluorescence cell images were captured by Leica SP8 confocal microscopy and analysed with Leica application suite X software. Microscopy experiments were performed on three independent occasions, and the images for these experiments were obtained on the same day using identical conditions.

Data set [6] deals with MCF-7 human breast cancer cells. In words: cells.
Data set [7] concerns purified bovine brain tubulin. In words: Tubulin polymerization assay (light scattering, BK006 kit). The format is biochemical. Particulars: for Vmax: 37 °C, 340 nm. As for the experimental part:
Tubulin polymerization was monitored using the BK006 kit obtained from Cytoskeleton Inc. (Denver, CO, USA). The values reported represent the average values determined from two independent assays. Purified bovine brain tubulin (>99%, 3 mg/mL) in buffer containing PIPES (80 mM, pH 6.9), EGTA (0.5 mM), MgCl2 (2 mM), GTP (1 mM) and glycerol (10%) was incubated at 37 °C in vehicle (1% DMSO or EtOH (v/v) in dH2O) or with compounds 9h, 9q, 9s, 10h, 10p, 10r, 11h, 11p, 11r, 17f (all at 10 µM concentration); CA-4 (10 μM) was used as control. In this assay, light scattering is related to the concentration of polymerised microtubules produced. Tubulin assembly was monitored turbidimetrically at 340 nm at 37 °C in a Spectramax 340 PC spectrophotometer (Molecular Devices, Sunnyvale, CA, USA).

In data set [8] the test system is MDA-MB-231 human breast cancer cells. The data set is described as follows: Alamar Blue cell viability (antiproliferative) assay. The format is cell-based. A general note: The colour change of resazurin is a common sign of viable cells or microbes.
Data set [9] can be described thus: HPLC stability study in phosphate buffers. The format is physicochemical. Particulars: for remaining at 7 h, 14.6 µg/mL: study over 7 h; for remaining at 264 h, 14.6 µg/mL: study over 264 h.
The subject of data set [10] is NCI 60 human cancer cell line panel. The data set is described as follows: NCI 60 cell line screen (SRB), panel values. The following applies: for IC (TGI (total growth inhibition)): read-out: Mean TGI.
A short description of data set [11]: HPLC stability under degradation conditions (acid, alkali, heat, light, oxidation).
Protocol: Samples were analysed using mobile phase acetonitrile (80%): water (20%), flow rate (1 mL/min) over 10 min. […] First, 30 µL of compound stock solution was diluted with appropriate buffer (1 mL); sample was shaken and injected immediately. […] (ii) Thermal stability: Compound stock solution (1 mL) was placed in a glass vial on a heating block for 4 h at 60 °C. The sample was then cooled, diluted (acetonitrile) and analysed. (ii) Oxidising conditions: H2O2 (3%, 0.2 mL) was added to compound stock solution (0.8 mL).
a All samples were analysed using acetonitrile (80%):water (20%) as the mobile phase over
10 min and a flow rate of 1 mL/min.
A further data set relates to MDA-MB-231/ATCC. In words: NCI-60 SRB screen, breast cancer. Particulars: Homo sapiens; MDA-MB-231; obtained from NCI; five concentrations 0.01–100 μM; 48 h; read-out: Antiproliferative Activity IC50. The format is cell-based, human.
[12] abbreviates: MCF7, read-out: Antiproliferative Activity IC50, MCF-7, eight concentrations 0.001–50 μM, mean ± SEM, Table 3.
[13] abbreviates: Homo sapiens, 60 cell, read-out: Mean GI50, mean over all NCI 60 cell lines.

Where two headings read alike, the source gives them in different places.

For `COc1ccc(/C=C\c2cc(OC)c(OC)c(OC)c2)cc1O` [CA-4, Combretastatin A-4, reference compound], the cell death with MCF-7 cells [1] is given as 12%. Besides, in [2], the “formation of β-tubulin-EBI adduct” value is recorded as “formation of the EBI adduct was prevented”. The amount remaining at 7 h, 41.3 µg/mL in data set [3] (study over 7 h) is 95%. In addition, the “cells undergoing apoptosis (early+late)” value in the data set with MCF-7 cells [4] (50 nM, 72 h) was 34.6%. Besides, the viability at 0.05 µM with MCF-7 cells [4] (Homo sapiens, MCF7, 72 h, read-out: Viable) stood at 61.8%. The “effect on microtubule network” value in [5] was “microtubule formation was inhibited and resulted in depolymerised microtubules”. The IC50 stood at 3 nM in [6] (MCF7, 72 h, MCF-7, Figure 2, 72 h); 3.9 nM in [6] (MCF7, 72 h, read-out: Antiproliferative Activity IC50, MCF-7, 72 h, eight concentrations 1–50 μM, mean ± SEM, Table 2); 3.9 ± 0.32 nM in data set [6] (MCF7, 72 h, read-out: Antiproliferative Activity IC50, MCF-7, 72 h, eight concentrations (0.001–50 mM [sic]), mean ± SEM, Table 5); 3.9 nM in data set [6] (MCF7, MCF-7); 3.9 ± 0.32 nM in [6] (setting [12]); 3.9 ± 0.32 nM in [6] (MCF7, read-out: Antiproliferative Activity IC50, MCF-7, eight concentrations 0.001–50 μM, mean ± SEM, Table 4). Moreover, the IC50 in data set [8] (72 h, eight concentrations 0.001-50 μM, mean ± SEM, read-out: Antiproliferative Activity IC50) is 43 nM. The “Fold Reduction in Vmax” value in data set [7] came to 6.3. Moreover, in [7] (compound at 10 μM), the Vmax was found to be 0.0022 mOD/min. In addition, in data set [9] (pH 4.0, 7.4 and 9.0 and human plasma), the time stable entry was “more than 7 h”. Further, the share remaining at 7 h, 14.6 µg/mL worked out at 97% in [9] (phosphate buffer, pH 4.0); 89% in data set [9] (phosphate buffer, pH 7.4); 90% in data set [9] (phosphate buffer, pH 9.0). The GI50 in data set [10] (setting [13]) was 99.3 nM. The IC (TGI (total growth inhibition)) in [10] (Homo sapiens, 60 cell) was found to be 10300 nM.
Regarding `CC(=O)O[C@H]1C(=O)[C@@]2(C)[C@H]([C@H](OC(=O)c3ccccc3)[C@]3(O)C[C@H](OC(=O)[C@H](O)[C@@H](NC(=O)c4ccccc4)c4ccccc4)C(C)=C1C3(C)C)[C@]1(OC(C)=O)CO[C@@H]1C[C@@H]2O` [paclitaxel], the “effect on microtubule network” value in data set [5] was “induced the formation of microtubule bundles and pseudo-asters”.
As to `C=CCC1C(=O)N(c2cc(OC)c(OC)c(OC)c2)C1c1ccc(OC)c(N)c1` (stereo not shown) [10r, 3-Allyl-4-(3-amino-4-methoxyphenyl)-1-(3,4,5-trimethoxyphenyl)azetidin-2-one], the share remaining at 4 h in data set [11] (1M HCl added to stock solution, % Remaining, 1M HCl (0.1 mL, 20 °C, 4h)) was 91.8%; in data set [11] (1M HCl added to stock solution, % Remaining, 1M HCl (0.2 mL, 50 °C, 4h)), 92.2%; in [11] (1M NaOH added to stock solution, % Remaining, 1M NaOH (0.2 mL, 50 °C, 4h)) it was 83.1%. In data set [11] (30% H2O2 added to stock solution, Hydrogen peroxide (30 % H2O2, 0.2 mL), 20 °C, 6h), this molecule displayed an amount remaining at 6 h of 8%. This molecule returned a fraction remaining at 312 h, 0.5 mg/mL in data set [11] (solution in acetonitrile:water 80:20, daylight, % Remaining, Daylight (acetonitrile (80%):water (20%) 13 days)) of 93%. Further, in data set [11] (stock solution in acetonitrile:water 80:20, heated, % Remaining, 80 °C (heating block, 5 h)), the amount remaining at 5 h, 0.5 mg/mL was determined as 100%. The IC50 in the data set on MDA-MB-231/ATCC is 35.2 nM; in data set [6] (MCF7, MCF-7) it was 10 to 33 nM; in data set [6] (setting [12]) it was 35 ± 4 nM; in [8] (read-out: IC50), 35 nM. For the same molecule, the share remaining at 264 h, 41.3 µg/mL in data set [3] (study over 264 h) amounted to 97%. In [7] (compound at 10 μM), the Vmax is listed as 0.0029 mOD/min. Also, in [7] (compound at 10 μM, relative to vehicle), the “Fold Reduction in Vmax” value turned out to be 3.4. For the same molecule, the amount remaining at 264 h, 14.6 µg/mL is 96% in data set [9] (phosphate buffer, pH 4.0); 99% in data set [9] (phosphate buffer, pH 7.4); 83% in data set [9] (phosphate buffer, pH 9.0). Moreover, in data set [9] (phosphate buffer, pH range studied, medium not specified, read-out: half-life (t½) (converted)), the half-life at 14.6 µg/mL is > 24 h. The 50% growth inhibitory concentration (GI50) is < 91.2 nM in data set [10] (setting [13]) and 85.1 nM in data set [10] (read-out: Mean GI50, mean over all NCI 60 cell lines). For the same molecule, the CC50 in data set [10] (Homo sapiens, 60 cell, read-out: Mean LC50) stood at 79400 nM. For the same molecule, the IC (TGI (total growth inhibition)) in [10] (Homo sapiens, 60 cell) came to 53700 nM.

The amount remaining is the share of the starting amount still present when the sample was taken. A word on the GI50: it is the concentration at which growth is held to half of that of the control. A word on the half-life: it is the time needed for the level to fall by half in the phase considered.
